“And” between values parts separate entries of the source, which are not always exact repeats. Equal values may be shown once. “Also recorded” adds a separate entry of the source. Read-outs that look alike come from different tables or passages of the source. Starred links: 1 amine or outer side, 2 acyl side, 3 side chain; linkers in the order of their positions; H or OH if unused. Positions of bridges follow the written chain, without caps; N, C: chain ends. Residues, ends and D or L forms follow the SMILES beside them. No end group written: not given here. Cysteamide = C(CS[*:3])N[*:1]
Key:
[1] = target: T1, recombinant human thymidylate synthase (hTS) (Homo sapiens, UniProt P04818); assay: hTS inhibition assay (spectrophotometric, absorbance at 340 nm); assay type: biochemical; details: for inhibition at 500 µM / % inhibition of hTS: at 500 µM and r.t.
T1 construct: made in house
T1 sequence (P04818 whole entry): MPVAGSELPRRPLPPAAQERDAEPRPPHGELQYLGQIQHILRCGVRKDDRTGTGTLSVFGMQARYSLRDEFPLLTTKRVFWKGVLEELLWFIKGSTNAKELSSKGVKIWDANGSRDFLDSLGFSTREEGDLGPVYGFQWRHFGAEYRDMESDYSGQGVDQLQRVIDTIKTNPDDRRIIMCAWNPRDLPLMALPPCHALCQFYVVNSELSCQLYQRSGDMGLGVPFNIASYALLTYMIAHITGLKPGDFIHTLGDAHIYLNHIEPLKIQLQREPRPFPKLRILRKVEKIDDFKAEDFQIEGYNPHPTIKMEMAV
Method: hTS was purified as previously reported. The enzyme solution was thawed the day of the experiment and the enzyme concentration was determined by UV−Vis spectroscopy (Varian Cary 100, Agilent, Santa Clara, CA, USA) using ε280 = 89000 M^−1 cm^−1 and Mr = 74 229. The thawed protein solution was kept constantly at 4 °C. In this condition, the enzyme was able to reproduce normal kinetic activity values (KM dUMP = 10−12 μM, KM mTHF = 4−6 μM, kcat = 0.8−0.9 s^−1). The peptide solution was mixed or vortexed in order to help solubilization; the precise concentration was determined through UV−Vis spectroscopy. A stock solution of mTHF was prepared in carbonate buffer. The stock was prepared in the range of 5 to 6 mM. A stock solution of dUMP was prepared in bidistilled water in the range of 10−12 mM. Peptide inhibitors were tested without incubation with hTS in […], at 25 °C. A 1 mL amount of assay buffer consisted of 50 mM TES, pH 7.4, containing 25 mM MgCl2, 6.5 mM HCHO, 1 mM EDTA, 75 mM β-mercaptoethanol (β-ME), 0.120 mM dUMP, and 0.060 mM mTHF. Following the addition of the enzyme (300 nM) and inhibitor mixture, the absorbance was monitored at 340 nm in a UV−Vis spectrophotometer for 3 min. In the control sample, an equal aliquot of enzyme alone was added. hTS activity inhibition percentages (I%) values were measured at 0.100−3000 µM concentration of inhibitor. […] The kinetic inhibition pattern was studied for compound 7 [12]. The inhibition values are expressed as mean ± SEM; n = 3.

IGROV-1 cells = assay: Cytotoxicity, crystal violet cell growth assay, peptides transfected with SAINT-PhD; assay type: cell-based, human; details: at 10 and 25 µM, ranking among the 10 cPs, SAINT-PhD delivery
Method: (§1) The IGROV-1, A2780, and A2780/CP human ovarian cancer cell lines were grown as monolayer in RPMI 1640 medium containing 10% heat-inactivated fetal bovine serum and 50 µg/mL gentamycin sulfate (Euroclone, Devon, UK). Cultures were equilibrated with humidified 5% CO2 in air at 37 °C. The cDDP-resistant variant A2780/CP cell line, derived from the parent A2780 cell line, is about 10-fold resistant to cDDP and was developed by monthly exposure to cDDP, followed by chronic exposure to stepwise increases in cDDP concentration. All studies were performed in Mycoplasma negative cells, as routinely determined with the MycoAlert Mycoplasma detection kit (Lonza, Walkersville, MD, USA).
(§2) Treatment with each peptide was performed according to the standard transfection protocol of the SAINT-PhD delivery system (Synvolux Therapeutics, Leiden, Netherlands). Complexes of peptide (µg) with SAINT-PhD (µL) were prepared at appropriate ratios corresponding to the approximate µM concentrations indicated. For each protein sample, complexes were prepared as follows: for the treatment of a 24-well plate, the appropriate amount of each peptide was diluted in HBS, then SAINT-PhD was pipetted into the solution without vortexing; then, the mixture was incubated for 5 min at room temperature, and filled up to 500 µL with serum-free medium. The culture medium was aspirated from the cells, the SAINT-PhD/peptide complex was added to the wells and incubated 4 h (37 °C, 5% CO2). Afterward, complete RPMI was added to reach the appropriate volume for maintaining the cell culture for the duration of the experiments.
(§3) Cell growth was determined using a modified crystal violet assay. On selected days, the tissue culture medium was removed, and the cell monolayer fixed with methanol and stained with 0.2% crystal violet solution in 20% methanol for at least 30 min. After being washed several times with distilled water to remove excess dye, the cells were left to dry. The incorporated dye was solubilized in acidified isopropanol (1N HCl: 2-propanol, 1:10). After appropriate dilution, absorbance was determined spectrophotometrically at 540 nm. The extracted dye was proportional to cell biomass. The percentage of cytotoxicity was calculated by comparing the absorbance of cultures exposed to the drug to unexposed (control) cultures.

[2] = target: T1, recombinant human thymidylate synthase (hTS); assay: hTS inhibition assay (spectrophotometric, absorbance at 340 nm); assay type: biochemical; details: for IC50: room temperature (20–22 °C) under stirring, standard error ±20% of the value; for % inhibition of hTS: at 500 µM and 37 °C under stirring
A2780 cells = assay: Cytotoxicity, crystal violet cell growth assay, peptides transfected with SAINT-PhD; assay type: cell-based, human; details: SAINT-PhD delivery
Method: as §1, §2, §3

A2780/CP cells = assay: as above; assay type: cell-based, human; details: SAINT-PhD delivery
Method: as §1, §2, §3

[3] = target: T1, recombinant human thymidylate synthase (hTS); details: at 100 µM; ref [20]; cited from earlier work

inhibition at 500 µM [1]	IC50 [2]	Molecule	cytotoxicity (in words) (IGROV-1 cells)	% inhibition of hTS [1]	% inhibition of hTS [2]	further results
38%	856 µM	CC(C)C[C@@H]1NC(=O)[C@H](CCC(N)=O)NC(=O)[C@@H]2CCCN2C(=O)[C@@H](NC(=O)[C@@H](N)CC(C)C)CSSC[C@@H](C(=O)O)NC(=O)[C@H](CCC(N)=O)NC(=O)[C@H](Cc2ccc(O)cc2)NC1=O [Peptide 8, Leu-c[Cys-Pro-Gln-Leu-Tyr-Gln-Cys]] (H-LCPQLYQC-OH; disulfide 2-8)	least active			
50%	484 µM and 474 µM	CC(C)C[C@@H]1NC(=O)[C@H](CCC(N)=O)NC(=O)[C@@H]2CCCN2C(=O)[C@H](CO)NC(=O)[C@@H](N)CSSC[C@@H](C(=O)O)NC(=O)[C@H](CCC(N)=O)NC(=O)[C@H](Cc2ccc(O)cc2)NC1=O [Peptide 10] (H-CSPQLYQC-OH; disulfide 1-8)	intermediate cytotoxicities			

More lines, now with the values behind:

Molecule	inhibition at 500 µM [1]	IC50 [2]	cytotoxicity (in words) (IGROV-1 cells)	% inhibition of hTS [1]	% inhibition of hTS [2]	further results
CC(C)C[C@@H]1NC(=O)[C@H](CCC(N)=O)NC(=O)[C@@H]2CCCN2C(=O)[C@@H](NC(=O)[C@@H](N)CC(C)C)CSSCCNC(=O)[C@H](CCCNC(=N)N)NC(=O)[C@H](CCC(N)=O)NC(=O)[C@H](Cc2ccc(O)cc2)NC1=O [Peptide 9, Leu-c[Cys-Pro-Gln-Leu-Tyr-Gln-Arg-CAM]] (H-LCPQLYQR-Cysteamide; disulfide 2-C)			intermediate cytotoxicities	inactive; also recorded: N.I. at 500 µM and r.t. N.I. at 500 µM and 37 °C under stirring	inactive; also recorded: N.I. at 500 µM and r.t. N.I. at 500 µM and 37 °C under stirring	
CC(C)C[C@@H]1NC(=O)[C@H](CCC(N)=O)NC(=O)[C@H](C)NC(=O)[C@@H](NC(=O)[C@@H](N)CC(C)C)CSSC[C@@H](C(=O)O)NC(=O)[C@H](CCC(N)=O)NC(=O)[C@H](Cc2ccc(O)cc2)NC1=O [Peptide 2, Leu-c[Cys-Ala-Gln-Leu-Tyr-Gln-Cys]] (H-LCAQLYQC-OH; disulfide 2-8)		900 µM	least active			inhibition at 400 µM ([1]; at 400 µM and r.t. under stirring): 36%
CC(C)C[C@@H]1NC(=O)[C@H](CCC(N)=O)NC(=O)[C@@H]2CCCN2C(=O)[C@@H](NC(=O)[C@@H](N)CC(C)C)CSSC[C@@H](C(=O)N[C@@H](CCC(N)=O)C(=O)N[C@@H](CCCNC(=N)N)C(=O)O)NC1=O [Peptide 6, Leu-c[Cys-Pro-Gln-Leu-Cys]-Gln-Arg] (H-LCPQLCQR-OH; disulfide 2-6)			least active; also recorded: almost non-cytotoxic	inactive	inactive	cytotoxicity (in words) (A2780 cells): almost non-cytotoxic; cytotoxicity (in words) (A2780/CP cells): almost non-cytotoxic
LSPQLYQR [[Pro^3]LR, proline mutant of LR]						% inhibition of hTS [3]: 25% at 100 µM ^c
